Data on nine compounds can be found in patent US7901667B2, “Bridgehead labelled compounds and methods of using the same” (Mallinckrodt Inc., priority 2005, dated 2011).

The conditions of series [1]: X = Tosylate, relative to tert-Butyl, cited from earlier work; for Relative rate of hydrolysis, calc.: calculated; for Relative rate of hydrolysis, exp.: experimental.
The target in series [2] is T1, 5-HT1A receptors (Homo sapiens, UniProt P08908).
T1 sequence (P08908 1-422): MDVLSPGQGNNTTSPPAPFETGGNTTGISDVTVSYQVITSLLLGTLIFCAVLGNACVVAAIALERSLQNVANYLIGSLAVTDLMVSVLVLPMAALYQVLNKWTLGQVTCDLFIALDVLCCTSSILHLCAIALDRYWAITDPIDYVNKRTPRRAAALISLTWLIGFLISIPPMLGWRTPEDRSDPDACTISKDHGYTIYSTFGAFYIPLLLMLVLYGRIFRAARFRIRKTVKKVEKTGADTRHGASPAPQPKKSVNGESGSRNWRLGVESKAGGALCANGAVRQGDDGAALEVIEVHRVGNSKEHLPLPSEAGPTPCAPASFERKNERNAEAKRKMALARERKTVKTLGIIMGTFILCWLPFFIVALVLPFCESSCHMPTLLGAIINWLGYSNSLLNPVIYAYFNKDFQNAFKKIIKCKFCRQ
To be noted: cited from earlier work.

For series [3] the following is noted: amide hydrolysis; cited from earlier work.
The conditions of series [4]: at 60 min, relative to whole brain average; cited from earlier work.
The test system of series [5] is α1-adrenoceptors. As to conditions: cited from earlier work.
Series [6] has as its target T2, human recombinant human 5-HT1A receptor subtype (Homo sapiens, UniProt P08908).
T2 construct: purchased Perkin Elmer (Boston, USA); host or cells: HEK-293 EBNA cells (membrane suspension)
T2 sequence (P08908 1-422): T1 sequence (P08908 1-422)
The series can be described thus: competitive binding assay with [^3H]8-OH-DPAT on membranes of HEK-293 EBNA-cells. The procedure:
A membrane suspension from HEK-293 EBNA-cells expressing the human recombinant human 5-HT1A receptor subtype, was obtained from Perkin Elmer (Boston, USA). The protein concentration of the original suspension was 36.8 mg/mL.
Aliquots of these diluted membranes (factor 1:20) were incubated on microplates for 120 min at 37° C. in the dark. […] The incubation buffer contained 50 mM TRIS-HCl and 5 mM MgSO4 (pH to 7.4 at 25° C.). […] Non-specific binding was determined using 5-hydroxytryptamine (5-HT, serotonin) as a competitor in a concentration of 10 μM.
After the incubation period, the reaction was rapidly terminated by vacuum filtration over a GF/C glass fiber filters that were incorporated in the microplates and that were presoaked in 0.5% polyethylenimine (Sigma-Aldrich, Munich, Germany), and washed 5 times with ice-cold TRIS-HCl buffer. 25 μL of scintillation fluid (MicroScint™, Perkin Elmer, Boston, USA) were added to each well, after which the microplates were counted in a liquid scintillation counter (Topcount, Packard).
For each candidate tracer, the inhibition constant (Ki) was calculated from the […] for the 5-HT1A receptor with non-linear regression curve fitting using the computer program Graphpad Prism® (version 3.02).

Each structure is given as a SMILES string.

As for `Cc1ccc(S(=O)(=O)OC23CC4CC(CC(C4)C2)C3)cc1` [1-Adamantyl], in series [1], the “Relative rate of hydrolysis, calc.” value is on record as 10^−4 and the “Relative rate of hydrolysis, exp.” value is 10^−3.
As for `Cc1ccc(S(=O)(=O)OC23CCC(CC2)CC3)cc1` [1-Bicyclo[2.2.2]octyl], in series [1], the “Relative rate of hydrolysis, calc.” value is on record as 10^−8 and the “Relative rate of hydrolysis, exp.” value is 10^−7.
As for `Cc1ccc(S(=O)(=O)OC23CCC(CC2)C3)cc1` [1-Norbornyl], in series [1], the “Relative rate of hydrolysis, calc.” value is recorded as 10^−14 and the “Relative rate of hydrolysis, exp.” value was 10^−13.
For `COc1ccccc1N1CCN(CCN(C(=O)C2CC3CCC2CC3)c2ccccn2)CC1` (stereo not drawn) [CPC-222], the “affinity with regard to WAY-100635” value in series [2] is listed as “comparable affinity”. In addition, the stability towards hydrolysis entry in series [3] was “stable towards hydrolysis”.
Regarding `Cc1ccc(S(=O)(=O)OC23C4C5C6C4C2C6C53)cc1` (stereo not drawn) [Cubyl], in series [1], the “Relative rate of hydrolysis, calc.” value is <10^−25 and the “Relative rate of hydrolysis, exp.” value is given as 10^−10.
Turning to `COc1ccccc1N1CCN(CCN(C(=O)C2CCC(F)CC2)c2ccccn2)CC1` (stereo not drawn) [FCWAY], in series [4], the “skull uptake of [^18F]” value is listed as “twice the whole brain average”.
As for `COc1ccccc1N1CCN(CCN(C(=O)c2ccc(F)cc2)c2ccccn2)CC1` [MPPF], the “affinity for the α1-adrenoceptors” value in series [5] is given as “quite high affinity”.
With `COc1ccccc1N1CCN(CCN(C(=O)c2ccc([123I])cc2)c2ccccn2)CC1` [MPPI], the “affinity for the α1-adrenoceptors” value in series [5] was “quite high affinity”.
As for `COc1ccccc1N1CCN(CCN(C(=O)C23C4C5C2C2C3C4C52I)c2ccccn2)CC1` (stereo not drawn) [iodocubyl-WAY], the “affinity towards the human 5-HT1A (Ki)” value in series [6] ([^3H]8-OH-DPAT 1.1 nM, 120 min at 37° C., n=4, values only in FIG. 6) was “subnanomolar range”. The “rank of affinity among the bridgehead iodo WAY derivatives” value in series [6] (iodobicyclooctyl, iodoadamantyl, iodonorbornyl and iodocubyl compared, FIG. 6) was “highest affinity”.
